Measured values as given in patent US8357673B2, “4-arylazo-3,5-diamino-pyrazole compounds and use thereof” (Univerzita Palackeho V Olomouci, priority 2004, dated 2013).
Like-named read-outs stand apart in the source and are kept apart here. Values belong to the compound of their own block, whether it stands above or below them.

Key:
GSK3β = GSK3β (Homo sapiens, UniProt P49841); assay: Kinase selectivity panel; format: biochemical; settings: in the presence of 10 μM compound
PKA = PKA (Homo sapiens, UniProt P17612); settings: in the presence of 10 μM compound
SAPK2α = SAPK2α (Homo sapiens, UniProt Q16539); assay: Kinase selectivity panel; format: biochemical; settings: in the presence of 10 μM compound
Sequence of SAPK2α (Q16539 whole entry): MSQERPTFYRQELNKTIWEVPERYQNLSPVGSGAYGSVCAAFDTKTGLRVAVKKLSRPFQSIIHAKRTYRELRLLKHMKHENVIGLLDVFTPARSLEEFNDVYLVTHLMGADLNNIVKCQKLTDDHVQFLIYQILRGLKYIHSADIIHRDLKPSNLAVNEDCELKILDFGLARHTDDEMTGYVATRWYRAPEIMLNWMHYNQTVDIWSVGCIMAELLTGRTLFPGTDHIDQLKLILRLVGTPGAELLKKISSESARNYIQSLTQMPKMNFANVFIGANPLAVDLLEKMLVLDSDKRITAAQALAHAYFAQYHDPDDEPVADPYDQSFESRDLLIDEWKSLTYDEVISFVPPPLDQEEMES

PKBα = PKBα (Homo sapiens, UniProt P31749); assay: Kinase selectivity panel; format: biochemical; settings: in the presence of 10 μM compound
Sequence of PKBα (P31749 whole entry, the tested form may be a part): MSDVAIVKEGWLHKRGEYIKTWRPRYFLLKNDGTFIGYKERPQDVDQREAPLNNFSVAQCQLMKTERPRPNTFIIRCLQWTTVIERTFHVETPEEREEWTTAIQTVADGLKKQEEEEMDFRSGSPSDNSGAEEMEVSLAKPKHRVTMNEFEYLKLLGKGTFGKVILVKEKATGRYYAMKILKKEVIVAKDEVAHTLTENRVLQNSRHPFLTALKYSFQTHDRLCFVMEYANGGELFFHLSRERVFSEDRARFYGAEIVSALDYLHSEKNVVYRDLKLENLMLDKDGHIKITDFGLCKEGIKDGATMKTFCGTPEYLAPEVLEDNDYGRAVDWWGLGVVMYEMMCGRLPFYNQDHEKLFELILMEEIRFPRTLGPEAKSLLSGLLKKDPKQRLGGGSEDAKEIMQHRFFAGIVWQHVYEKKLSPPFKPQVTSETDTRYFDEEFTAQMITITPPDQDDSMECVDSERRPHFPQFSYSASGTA

[1] = tested on: poly(ADP-ribose)polymerase (PARP) cleavage fragment; assay: PARP cleavage by western blot (induction of apoptosis); format: cell-based, human; settings: K562 cells; FIG. 4 legend: MCF7 cells, 72 h
Experimental: For direct immunoblotting, total cellular protein lysates were prepared by harvesting treated cells in Laemmli sample buffer. […] The probing with anti-PARP monoclonal antibody (clone C-2-10) diluted 1:1000 lasted for 2 h at 22° C. After washing three times in PBS-T, the membrane was incubated with a 1:1000 dilution of peroxidase conjugated rabbit antimouse immunoglobulin. After another three washes in PBS-T, peroxidase activity was detected by ECL chemiluminiscence reagents (Amersham) according to the manufacturer's instructions. After a longer incubation period (48-72 h) the cells started to die, with the some morphological features typical for apoptosis. […] The induction of apoptosis was therefore verified by the detection of a poly(ADP-ribose)polymerase (PARP) cleavage fragment. PARP is specifically cleaved as a result of activation of upstream proapoptotic caspases into 89 kDa and 27 kDa peptides.

CDK2/cyclin E = biological target: T1, CDK2/cyclin E (Homo sapiens, UniProt P24941); assay: CDK2/cyclin E kinase inhibition assay (histone H1, [γ-33P]ATP); format: biochemical; settings: for IC50: averaged from triplicates, 15 μM ATP
T1 construct: made in house; host or cells: Sf9 insect cells (baculovirus co-infection)
Experimental: (§1) CDK1/cyclin B and CDK2/cyclin E kinases were produced in Sf9 insect cells coinfected with appropriate baculoviral constructs. The cells were harvested 70 h post infection, incubated in lysis buffer (50 mM Tris pH 7.4, 150 mM NaCl, 5 mM EDTA, 20 mM NaF, 1% Tween 20, 1 mM DTT, 0.1 mM PMSF, 0.5 μg/ml leupeptine, 1 μg/ml aprotonine) for 30 min on ice and the soluble fraction was recovered by centrifugation at 20.000 g for 10 min. The enzymes were purified on NiNTA column (Qiagen), stored at 4° C. and used within a week. To carry out the enzyme inhibition assays under linear conditions, the final point test system for kinase activity measurement was used. Kinase was added to reaction mixture in such a way as to obtain linear activity with respect to the concentration of enzyme and with respect to time. For determination of kinase inhibition the reaction mixture contained 1 mg/ml histone H1 (type III-S, Sigma) in the presence of 15 μM ATP, 0.05 μCi [γ-^33P]ATP and the tested compound in a final volume of 10 μl; all in reaction buffer (50 mM HEPES, 10 mM MgCl2, 5 mM EGTA, 10 mM 2-glycerolphosphate, 1 mM NaF, 1 mM DTT, pH 7.4). After 20 min incubation, the reactions were stopped by the addition of 5 μl of a 3% H3PO4, aliquots were spotted on P-81 phosphocellulose (Whatman, USA) that was subsequently washed 3× with 5% H3PO4 and finally air dried. The measurements of kinase inhibition employed digital image analyzer BAS-1800 (Fujifilm, Japan). Kinase activity was usually expressed as a percentage of maximum activity. […] For the purpose of kinetic analysis, the activity was expressed as arbitrary units (AU) of digital image analyzer signal.

c-Abl = c-Abl (Homo sapiens, UniProt P00519); assay: Kinase selectivity panel; format: biochemical; settings: in the presence of 10 μM compound
CDK7/cyclin H = CDK7/cyclin H (Homo sapiens, UniProt P50613); assay: Kinase selectivity panel; format: biochemical; settings: in the presence of 10 μM compound
Sequence of CDK7/cyclin H (P50613 whole entry): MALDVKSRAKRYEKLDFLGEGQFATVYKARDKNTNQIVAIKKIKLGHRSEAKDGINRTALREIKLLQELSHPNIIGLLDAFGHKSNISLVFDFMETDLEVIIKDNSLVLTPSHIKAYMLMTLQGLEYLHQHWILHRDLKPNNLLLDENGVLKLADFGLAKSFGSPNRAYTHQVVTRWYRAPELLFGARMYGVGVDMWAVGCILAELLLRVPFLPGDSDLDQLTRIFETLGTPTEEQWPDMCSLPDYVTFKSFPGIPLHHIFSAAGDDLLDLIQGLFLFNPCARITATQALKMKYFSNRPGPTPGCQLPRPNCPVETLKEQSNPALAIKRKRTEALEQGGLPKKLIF
Sequence of CDK7/cyclin H (P51946 whole entry partner): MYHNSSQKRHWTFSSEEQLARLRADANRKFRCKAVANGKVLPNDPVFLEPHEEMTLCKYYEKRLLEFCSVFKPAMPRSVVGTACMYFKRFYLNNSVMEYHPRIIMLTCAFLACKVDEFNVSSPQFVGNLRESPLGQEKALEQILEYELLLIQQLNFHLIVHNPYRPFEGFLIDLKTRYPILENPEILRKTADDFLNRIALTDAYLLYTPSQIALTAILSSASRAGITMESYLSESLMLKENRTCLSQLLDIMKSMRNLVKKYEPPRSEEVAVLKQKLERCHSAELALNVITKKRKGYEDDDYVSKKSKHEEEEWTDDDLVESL

[2] = In vitro cytotoxicity, Calcein AM, 72 h; format: cell-based, human; settings: human, at 100 μM
Experimental: (§2) Tested drugs were added to the cell cultures in six different concentration and kept at 37° C. and 5% CO2 for three days.
(§3) The cells, cultured in DMEM (supplemented with 10% fetal calf serum, 4 mM glutamine, 100 IU/ml penicillin, 100 μg/ml streptomycin) in a humidified CO2 incubator at 37° C., were redistributed into 96-well microtitre plates (10.000 cells per well). After 12 h preincubation, tested compounds in six-fold dilutions were added. Treatment of cells with the tested compounds (in the 1-100 μM range) lasted for 72 h.

CHK1 = CHK1 (Homo sapiens, UniProt O14757); assay: Kinase selectivity panel; format: biochemical; settings: in the presence of 10 μM compound
Sequence of CHK1 (O14757 whole entry): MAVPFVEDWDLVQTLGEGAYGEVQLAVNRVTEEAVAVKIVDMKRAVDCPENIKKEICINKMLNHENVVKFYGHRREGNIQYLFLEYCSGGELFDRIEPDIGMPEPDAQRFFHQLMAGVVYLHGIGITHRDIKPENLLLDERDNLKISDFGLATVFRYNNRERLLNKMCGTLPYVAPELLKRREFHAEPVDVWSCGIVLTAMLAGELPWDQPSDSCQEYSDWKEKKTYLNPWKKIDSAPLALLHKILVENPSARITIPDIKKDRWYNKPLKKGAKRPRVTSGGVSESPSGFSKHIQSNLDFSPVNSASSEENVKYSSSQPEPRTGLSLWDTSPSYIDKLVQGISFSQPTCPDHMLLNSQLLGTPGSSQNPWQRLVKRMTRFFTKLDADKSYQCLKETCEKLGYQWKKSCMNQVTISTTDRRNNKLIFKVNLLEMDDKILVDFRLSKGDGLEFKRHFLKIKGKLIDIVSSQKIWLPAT

p70S6K = p70S6K (Homo sapiens, UniProt P23443); assay: Kinase selectivity panel; format: biochemical
Sequence of p70S6K (P23443 whole entry): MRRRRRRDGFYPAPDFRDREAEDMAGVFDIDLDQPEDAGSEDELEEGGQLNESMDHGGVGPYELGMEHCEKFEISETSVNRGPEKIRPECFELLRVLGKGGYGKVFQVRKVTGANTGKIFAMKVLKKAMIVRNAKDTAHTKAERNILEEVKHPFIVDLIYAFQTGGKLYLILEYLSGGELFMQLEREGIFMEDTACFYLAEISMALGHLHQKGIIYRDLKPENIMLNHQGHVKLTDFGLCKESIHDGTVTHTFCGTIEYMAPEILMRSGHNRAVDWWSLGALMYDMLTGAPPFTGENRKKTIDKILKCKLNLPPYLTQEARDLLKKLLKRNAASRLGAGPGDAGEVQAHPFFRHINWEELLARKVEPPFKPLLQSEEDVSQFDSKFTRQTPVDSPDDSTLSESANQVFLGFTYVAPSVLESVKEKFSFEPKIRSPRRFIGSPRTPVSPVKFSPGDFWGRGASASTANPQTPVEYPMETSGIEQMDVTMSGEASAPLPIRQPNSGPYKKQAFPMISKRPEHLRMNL

K562 cell line = assay: Cell cycle analysis by flow cytometry; format: cell-based, human
Experimental: Taxol (1 μM) treated and control cells were harvested and analyzed simultaneously.
The antiproliferative activity of 4-arylazo-3,5-diaminopyrazoles was subsequently verified by flow cytometry with subconfluent and asynchronously growing K562 cell line. […] The cell cycle block in G2/M was not dominant.
After a longer incubation period (48-72 h) the cells started to die, with the some morphological features typical for apoptosis. […] The induction of apoptosis was therefore verified by the detection of a poly(ADP-ribose)polymerase (PARP) cleavage fragment. PARP is specifically cleaved as a result of activation of upstream proapoptotic caspases into 89 kDa and 27 kDa peptides.

CDK1/cyclin B = biological target: T2, CDK1/cyclin B (Homo sapiens, UniProt P06493); assay: CDK1/cyclin B kinase inhibition assay (histone H1, [γ-33P]ATP); format: biochemical; settings: for IC50: averaged from triplicates, 15 μM ATP
T2 construct: made in house; host or cells: Sf9 insect cells (baculovirus co-infection)
T2 sequence (P06493 whole entry): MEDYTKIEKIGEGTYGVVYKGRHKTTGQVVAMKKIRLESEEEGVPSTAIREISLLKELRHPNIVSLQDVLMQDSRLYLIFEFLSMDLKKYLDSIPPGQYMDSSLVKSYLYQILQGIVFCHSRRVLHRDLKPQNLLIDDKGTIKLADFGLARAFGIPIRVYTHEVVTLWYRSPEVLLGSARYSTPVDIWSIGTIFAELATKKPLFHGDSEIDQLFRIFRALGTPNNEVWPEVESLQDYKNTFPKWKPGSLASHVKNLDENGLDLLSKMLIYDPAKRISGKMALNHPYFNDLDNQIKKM
T2 sequence (P14635 whole entry partner): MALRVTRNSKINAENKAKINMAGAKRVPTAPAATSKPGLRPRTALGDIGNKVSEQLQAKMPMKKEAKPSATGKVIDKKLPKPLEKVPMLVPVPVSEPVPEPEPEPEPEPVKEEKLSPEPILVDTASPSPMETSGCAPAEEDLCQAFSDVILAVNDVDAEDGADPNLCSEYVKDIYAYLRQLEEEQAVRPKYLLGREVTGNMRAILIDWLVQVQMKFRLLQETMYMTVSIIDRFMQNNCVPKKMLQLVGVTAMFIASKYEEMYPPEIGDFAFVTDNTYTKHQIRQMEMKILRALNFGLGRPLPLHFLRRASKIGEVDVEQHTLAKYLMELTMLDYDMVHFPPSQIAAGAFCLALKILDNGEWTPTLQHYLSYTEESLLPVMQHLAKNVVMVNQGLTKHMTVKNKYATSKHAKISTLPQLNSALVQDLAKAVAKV
Experimental: as §1

CK2 = CK2 (Homo sapiens, UniProt P68400); assay: Kinase selectivity panel; format: biochemical; settings: in the presence of 10 μM compound
Sequence of CK2 (P68400 whole entry): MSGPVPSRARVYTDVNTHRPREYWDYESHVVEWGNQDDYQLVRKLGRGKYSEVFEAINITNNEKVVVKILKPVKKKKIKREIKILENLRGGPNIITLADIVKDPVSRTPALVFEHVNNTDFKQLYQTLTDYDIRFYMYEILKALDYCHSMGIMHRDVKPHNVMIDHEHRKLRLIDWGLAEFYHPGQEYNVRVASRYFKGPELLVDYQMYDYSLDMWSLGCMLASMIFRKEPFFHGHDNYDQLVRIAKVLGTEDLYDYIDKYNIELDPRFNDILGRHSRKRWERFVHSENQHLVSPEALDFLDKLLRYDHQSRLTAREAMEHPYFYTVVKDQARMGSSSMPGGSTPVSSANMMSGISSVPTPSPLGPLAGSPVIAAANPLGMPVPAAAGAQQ

MAPK1 [3] = assay: Kinase selectivity panel; format: biochemical, human; settings: in the presence of 10 μM compound
[4] = tested on: MCF7 (human breast adenocarcinoma); assay: In vitro cytotoxicity, Calcein AM, 72 h; format: cell-based; settings: 72 h; for IC50: Calcein AM, triplicates, read-out: IC50 (μM) MCF7
Experimental: as §2, §3

[5] = tested on: HOS (human osteogenic sarcoma); assay: In vitro cytotoxicity, Calcein AM, 72 h; format: cell-based; settings: for IC50: Calcein AM, triplicates, read-out: IC50 (μM) HOS
Experimental: as §2, §3

[6] = tested on: G 361 (human malignant melanoma); assay: In vitro cytotoxicity, Calcein AM, 72 h; format: cell-based; settings: 72 h; for IC50: Calcein AM, triplicates, read-out: IC50 (μM) G361
Experimental: as §2, §3

[7] = tested on: K562 (human chronic myeloblastic leukemia); assay: In vitro cytotoxicity, Calcein AM, 72 h; format: cell-based; settings: 72 h; for IC50: Calcein AM, triplicates, read-out: IC50 (μM) K562
Experimental: as §2, §3

CDK1 and CDK2 = assay: CDK inhibition, for CDK1 and CDK2 together; format: biochemical
Experimental: as §1, with “After 20 min incubation, the reactions were stopped by the addition of 5 μl of a 3% H3PO4, aliquots were spotted on P-81 phosphocellulose (Whatman, USA) that was subsequently washed 3× with 5% H3PO4 and finally air dried. The measurements of kinase inhibition employed digital image analyzer BAS-1800 (Fujifilm, Japan).” left out

in vitro = format: cell-based; settings: human
Experimental: The following cell lines were used: HELA (human cervical carcinoma), MCF7 (human breast adenocarcinoma), NIH 3T3 (mouse fibroblasts), HOS (human osteogenic sarcoma), HL 60 (human promyelocytic leukemia), G 361 (human malignant melanoma), K562 (human chronic myeloblastic leukemia), CEM (human lymphoblastoid leukaemia). Tested drugs were added to the cell cultures in six different concentration and kept at 37° C. and 5% CO2 for three days.
as §3, with “h. At the end of this period, the cells were fed for 1 h with Calcein AM and the fluorescence of the live cells was measured at 485 nm/538 nm (ex/em) with a Fluoroskan Ascent (Labsystems, Finland).” for “h.”

CDK7 = CDK7 (Homo sapiens, UniProt P50613); settings: Knockaert et al 2000, Cohen 2003; cited from earlier work
Sequence of CDK7 (P50613 whole entry, species assumed): as the sequence (P50613 whole entry) above
Sequence of CDK7 (P51946 whole entry partner, species assumed): as the sequence (P51946 whole entry partner) above

MAPK1 [8] = settings: Knockaert et al 2000, Cohen 2003; cited from earlier work
[9] = in the presence of 10 μM compound
[10] = G 361 cells (human malignant melanoma), 72 h, read-out: % of viable cells G361
[11] = HOS cells (human osteogenic sarcoma), read-out: % of viable cells HOS
[12] = K562 cells (human chronic myeloblastic leukemia), 72 h, read-out: % of viable cells K562
[13] = MCF7 cells (human breast adenocarcinoma), 72 h, read-out: % of viable cells MCF7

Sequence of GSK3β (P49841 whole entry): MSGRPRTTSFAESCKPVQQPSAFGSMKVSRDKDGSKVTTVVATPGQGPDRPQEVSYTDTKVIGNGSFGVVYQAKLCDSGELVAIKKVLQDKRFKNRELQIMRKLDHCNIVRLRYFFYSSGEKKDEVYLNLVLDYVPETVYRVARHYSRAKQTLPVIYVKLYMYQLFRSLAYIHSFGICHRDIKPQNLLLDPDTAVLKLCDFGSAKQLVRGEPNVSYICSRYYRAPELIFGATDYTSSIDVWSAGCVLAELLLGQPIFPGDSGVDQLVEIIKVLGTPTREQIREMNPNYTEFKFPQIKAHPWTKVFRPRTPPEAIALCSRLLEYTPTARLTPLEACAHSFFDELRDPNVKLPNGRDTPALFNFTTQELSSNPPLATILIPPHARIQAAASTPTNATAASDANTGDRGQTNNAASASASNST

SMILES: Nc1n[nH]c(N)c1N=Nc1ccc(O)cc1 [Compound 12b, 3,5-diamino-4-(4-hydroxy)phenylazo-pyrazole]
- % of kinase activity (GSK3β): 81%
- % of kinase activity (PKA): 67%
- % of kinase activity (SAPK2α): 82%
- % of kinase activity (PKBα): 105%
- PARP cleavage fragment (western blot) [1]: revealed a 89 kDa peptide
- IC50 (CDK2/cyclin E): 3.5 µM
- % of kinase activity (CDK2/cyclin E; [9]): 31%
- % of kinase activity (c-Abl): 84%
- % of kinase activity (CDK7/cyclin H): 71%
- viability at 72 h, 100 µM [2, 10]: 8.3%
- viability at 72 h, 100 µM [2, 11]: 22%
- viability at 72 h, 100 µM [2, 12]: 23%
- viability at 72 h, 100 µM [2, 13]: 20%
- % of kinase activity (CHK1): 89%
- IC50 (p70S6K): ~10 µM
- % of kinase activity (p70S6K; [9]): 51%
- cell death by western blotting and flow cytometry (K562 cell line; 72 h treatment): significant cell death
- cell cycle distribution (K562 cell line; K562, 50 μM, after 12 h incubation): accumulation of cell population in G1
- sub-G1 peak / fragmented DNA (K562 cell line; K562, longer incubation period (48-72 h)): sub-G1 peak of cell fragments, containing fragmented DNA
- IC50 (CDK1/cyclin B): 2.1 µM
- % of kinase activity (CDK1/cyclin B; [9]): 19%
- % of kinase activity (CK2): 65%
- % of kinase activity (MAPK1 [3]): 99%

SMILES: Nc1n[nH]c(N)c1N=Nc1ccccc1CO [Compound 16b, 3,5-diamino-4-(2-hydroxymethyl)phenylazo-pyrazole]
- IC50 (CDK2/cyclin E): 17 µM
- IC50 ([4]; Homo sapiens, MCF7): > 100 µM
- IC50 ([5]; Homo sapiens): > 100 µM
- IC50 ([6]; Homo sapiens, G-361): > 100 µM
- viability at 72 h, 100 µM [2, 10]: 84%
- viability at 72 h, 100 µM [2, 11]: 87%
- viability at 72 h, 100 µM [2, 12]: 86%
- viability at 72 h, 100 µM [2, 13]: 51%
- IC50 ([7]; Homo sapiens, K562): > 100 µM
- IC50 (CDK1/cyclin B): 21 µM

SMILES: Nc1n[nH]c(N)c1N=Nc1cccc2c1CCCC2 [Compound 30b]
- CDK inhibitory activity (in words) (CDK1 and CDK2): only a weak impact on CDK activity
- IC50 (CDK2/cyclin E): > 100 µM
- IC50 [4]: 81 ± 9 µM
- % of viable cells MCF7 ([4]; at 100 μM): (39 ± 10%)
- IC50 [5]: 92 ± 5 µM
- % of viable cells HOS ([5]; at 100 μM): (32 ± 6%)
- IC50 [6]: 77 ± 4 µM
- % of viable cells G361 ([6]; at 100 μM): (27 ± 5) %
- IC50 [7]: 55 ± 1 µM
- % of viable cells K562 ([7]; at 100 μM): (26 ± 7) %
- IC50 (CDK1/cyclin B): > 100 µM

SMILES: CC[C@H](CO)Nc1nc(NCc2ccccc2)c2ncn(C(C)C)c2n1 [roscovitine]
- effect on CDK7 (in words) (CDK7): strong effect
- effect on MAPK1 (in words) (MAPK1 [8]): strong effect

The next lines start with results.

- IC50 (CDK2/cyclin E): > 100 µM
- IC50 (CDK1/cyclin B): > 100 µM
SMILES: NCc1ccc(/N=N/c2c(N)n[nH]c2N)cc1 [Compound 17b, 3,5-diamino-4-(4-aminomethyl)phenylazo-pyrazole]
- CDK inhibitory activity (in words) (CDK1 and CDK2): low activity (almost zero)

- IC50 at 72 h (in vitro): > 100 µM
SMILES: Cn1cnc2c(NCc3ccccc3)nc(NCCO)nc21 [olomoucine, reference compound]
